In patent US20160368879A1, “PHOTOACID GENERATOR, AND RESIN COMPOSITION FOR PHOTOLITHOGRAPHY” (SAN-APRO LTD., priority 2013, published 2016):

Legend:
Format in all cases: physicochemical
[1] = Molar extinction coefficient of i-line (365 nm), UV-visible absorbance in acetonitrile; details: 0.25 mmol/L in acetonitrile, cell length 1 cm
Description: The synthesized photoacid generator was diluted to 0.25 mmol/L with acetonitrile, and using an ultraviolet-visible spectrophotometer (UV-2550 available from SHIMADZU CORPORATION), the absorbance in a range of 200 nm to 500 nm was measured with a cell having an optical path length (a cell length) of 1 cm. The molar extinction coefficient of i-line (365 nm) (ε365) was calculated from the following equation.
[In the equation, […] represents the absorbance at 365 nm.]

[2] = Thermal decomposition temperature (TG/DTA, 2% weight reduction); details: point of 2% weight reduction; 10° C./minute from 30° C. to 500° C.; nitrogen atmosphere
Description: The synthesized photoacid generator was measured for the change in weight under a temperature increasing condition of 10° C./minute from 30° C. to 500° C. under a nitrogen atmosphere using a thermal gravimetric/differential thermal analyzer (TG/DTA 6200, available from Seiko Instruments Inc.), and a point where the weight was reduced by 2% was defined as the thermal decomposition temperature.

[3] = Solvent solubility (butyl acetate, toluene or PGMEA); details: for Solvent solubility PGMEA / Solvent solubility Butyl acetate / Solvent solubility Toluene: 25° C.
Description: In a test tube, 0.1 g of the synthesized photoacid generator was placed, and an organic solvent (butyl acetate, toluene or PGMEA) was added thereto in 0.2 g portions under a condition where the temperature was adjusted to 25° C. until the photoacid generator was completely dissolved. In this connection, in the case where the photoacid generator was not completely dissolved even when 20 g of the solvent was added, the photoacid generator was evaluated as one that was not dissolved.

| Molar extinction coefficient [1] [L/mol/cm] | Thermal decomposition temperature [2] [°C] | Solvent solubility PGMEA [3] [wt %] | Solvent solubility Butyl acetate [3] [wt %] | Solvent solubility Toluene [3] [wt %] | solubility to a solvent (in words) ([3]; summary of Tables 4 to 6) | SMILES |
| --- | --- | --- | --- | --- | --- | --- |
| 16300 | 234 | 6.5 | 8.5 | 9 |  | CC(C)Oc1ccc2c3c(cccc13)C(=O)N(OS(=O)(=O)C(F)(F)F)C2=O [Example A-1, 4-isopropoxy-1,8-naphthalimide trifluoromethanesulfonate] |
| 1600 | 234 | >30 | >30 | >30 |  | CCCC(=O)Oc1cc2c3c(cccc3c1)C(=O)N(OS(=O)(=O)C(F)(F)F)C2=O [Example A-10, 3-butyroyloxy-1,8-naphthalimide trifluoromethanesulfonate] |
| 330 | 230 | <0.5 | <0.5 | <0.6 | insufficient | CC1(C)C2CCC1(CS(=O)(=O)ON1C(=O)c3cccc4cccc(c34)C1=O)C(=O)C2 (stereo not drawn) [A′-5, 1,8-naphthalimide-(+)-10-camphorsulfonate, reference compound] |
| 12000 | 245 | 14 | 17 | 16 |  | O=C1c2cccc3c(Oc4c(F)c(F)c(F)c(F)c4F)ccc(c23)C(=O)N1OS(=O)(=O)C(F)(F)F [Example A-5, 4-pentafluorophenoxy-1,8-naphthalimide trifluoromethanesulfonate] |
| 12000 | 232 | 7 | 7.5 | 10 |  | O=C1c2cccc3c(OCC(F)(F)C(F)F)ccc(c23)C(=O)N1OS(=O)(=O)c1c(F)c(F)c(F)c(F)c1F [Example A-23, 4-(2,2,3,3-tetrafluoro-1-propoxy)-1,8-naphthalimide pentafluorobenzenesulfonate] |
| 7500 | 242 | 1.5 | 2 | 1.9 |  | COc1cc2c3c(cccc3c1)C(=O)N(OS(=O)(=O)C[C@]13CCC(CC1=O)C3(C)C)C2=O [Example A-48, 3-methoxy-1,8-naphthalimide-(+)-10-camphorsulfonate] |
| 5500 | 240 | 8 | 7.5 | 9 |  | C[Si](C)(C)c1ccc2c3c(cccc13)C(=O)N(OS(=O)(=O)C(F)(F)F)C2=O [Example A-18, 4-trimethylsilyl-1,8-naphthalimide trifluoromethanesulfonate] |
| 14000 | 240 | 3 | 3.5 | 6 |  | CCCOc1ccc2c3c(cccc13)C(=O)N(OS(=O)(=O)c1c(F)c(F)c(F)c(F)c1F)C2=O [Example A-22, 4-n-propoxy-1,8-naphthalimide pentafluorobenzenesulfonate] |
| 1500 | 232 | 8 | 11 | 9 |  | CCCCC(CC)C(=O)Oc1cc2c3c(cccc3c1)C(=O)N(OS(=O)(=O)CC13CCC(CC1=O)C3(C)C)C2=O (stereo not drawn) [Example A-49, 3-(2-ethylhexanoyloxy)-1,8-naphthalimide-(+)-10-camphorsulfonate] |
| 16300 | 239 | 1.8 | 1.7 | 2 |  | CC(C)Oc1ccc2c3c(cccc13)C(=O)N(OS(=O)(=O)CC13CCC(CC1=O)C3(C)C)C2=O (stereo not drawn) [Example A-41, 4-isopropoxy-1,8-naphthalimide-(+)-10-camphorsulfonate] |
| 1500 | 231 | >30 | >30 | >30 |  | CCCCC(CC)C(=O)Oc1cc2c3c(cccc3c1)C(=O)N(OS(=O)(=O)C(F)(F)F)C2=O (stereo not shown) [Example A-9, 3-(2-ethylhexanoyloxy)-1,8-naphthalimide trifluoromethanesulfonate] |
| 6200 | 252 | 3.5 | 4.5 | 2.5 |  | CC(C)(C)Cc1cc2c3c(cc(CC(C)(C)C)cc3c1)C(=O)N(OS(=O)(=O)CC13CCC(CC1=O)C3(C)C)C2=O (stereo not drawn) [Example A-54, 3,6-dineopentyl-1,8-naphthalimide-(+)-10-camphorsulfonate] |

The remaining lines, values behind:

| SMILES | Molar extinction coefficient [1] [L/mol/cm] | Thermal decomposition temperature [2] [°C] | Solvent solubility PGMEA [3] [wt %] | Solvent solubility Butyl acetate [3] [wt %] | Solvent solubility Toluene [3] [wt %] | solubility to a solvent (in words) ([3]; summary of Tables 4 to 6) |
| --- | --- | --- | --- | --- | --- | --- |
| O=C(Cc1ccccc1)c1ccc2c3c(cccc13)C(=O)N(OS(=O)(=O)c1c(F)c(F)c(F)c(F)c1F)C2=O [Example A-24, 4-phenylacetyl-1,8-naphthalimide pentafluorobenzenesulfonate] | 3000 | 242 | 3.2 | 3.5 | 5.5 |  |
| O=C1c2cccc3c(Sc4ccccc4)ccc(c23)C(=O)N1OS(=O)(=O)c1c(F)c(F)c(F)c(F)c1F [Example A-27, 4-phenylthio-1,8-naphthalimide pentafluorobenzenesulfonate] | 20000 | 242 | 4 | 5.5 | 5.5 |  |
| O=C1c2cccc3c(C(F)(F)C(F)(F)C(F)(F)C(F)(F)C(F)(F)C(F)(F)C(F)(F)C(F)(F)F)ccc(c23)C(=O)N1OS(=O)(=O)C(F)(F)F [Example A-17, 4-(heptadecafluoro-n-octyl)-1,8-naphthalimide trifluoromethanesulfonate] | 80 | 242 | >30 | >30 | >30 |  |
| CC(C)(C)Cc1cc2c3c(cc(CC(C)(C)C)cc3c1)C(=O)N(OS(=O)(=O)C(F)(F)F)C2=O [Example A-14, 3,6-dineopentyl-1,8-naphthalimide trifluoromethanesulfonate] | 6200 | 248 | 14 | 18 | 10 |  |
| O=C1c2cccc3c(C(F)(F)C(F)(F)C(F)(F)C(F)(F)C(F)(F)C(F)(F)C(F)(F)C(F)(F)F)ccc(c23)C(=O)N1OS(=O)(=O)c1c(F)c(F)c(F)c(F)c1F [Example A-37, 4-(heptadecafluoro-n-octyl)-1,8-naphthalimide pentafluorobenzenesulfonate] | 80 | 244 | 23 | 25 | 28 |  |
| c1ccc(Sc2ccc([S+](c3ccccc3)c3ccccc3)cc2)cc1 [A′-2, reference compound] | 80 | 340 | >30 | <0.5 | <0.5 |  |
| COc1cc2c3c(cccc3c1)C(=O)N(OS(=O)(=O)c1c(F)c(F)c(F)c(F)c1F)C2=O [Example A-28, 3-methoxy-1,8-naphthalimide pentafluorobenzenesulfonate] | 7500 | 240 | 5 | 6.5 | 6 |  |
| O=C1c2cc(C34CC5CC(CC(C5)C3)C4)cc3cc(C45CC6CC(CC(C6)C4)C5)cc(c23)C(=O)N1OS(=O)(=O)c1c(F)c(F)c(F)c(F)c1F [Example A-35, 3,6-diadamantyl-1,8-naphthalimide pentafluorobenzenesulfonate] | 6000 | 251 | 5.5 | 6 | 9 |  |
| O=C(Oc1cc2c3c(cccc3c1)C(=O)N(OS(=O)(=O)c1c(F)c(F)c(F)c(F)c1F)C2=O)c1ccccc1 [Example A-31, 3-benzoyloxy-1,8-naphthalimide pentafluorobenzenesulfonate] | 1400 | 243 | 16 | 20 | 18 |  |
